Target: 3R Shaker K channel (Drosophila melanogaster, UniProt P08510, A359R/M356R)
Experiment: physchem
Type: cell-based
Conditions: 100 μM; for compound-induced G(V) shift (mean±SEM) / G(V) shift: pH 7.4, Xenopus oocytes; for ΔG(V) of representative G(V) curves (single examples): pH 7.4, same cells as representative traces; for relative current amplitude: representative traces at voltage giving 10% of maximum conductance in control; for relative current amplitude / effect on G(V) shift / current compared with DHAA / increase in G(V) shift relative to DHAA (ΔVc7, ΔVhalo, ΔVtot): pH 7.4; for effect on G(V) shift / current compared with DHAA: C7-modified DHAA; for G(V) shift: Table 1
Text: A 3R Shaker K channel is a modified Shaker K channel where residues 356 and 359 are mutated to arginines.
All animal experiments were approved by the local Animal Care and Use Committee and followed international guidelines. A modified Shaker H4 channel^30, with removed N-type inactivation (ShH4IR)^31, here called the wild type (WT) channel, was expressed in oocytes. In addition, a modified 3R Shaker K channel where two introduced positive charged arginines (M356R and A359R) in addition to one native arginine (R362) makes the channel more sensitive to DHA^16, was expressed in oocytes and in a CHO—K1 stable cell line.
African clawed frogs (Xenopus laevis) were anesthetized with 1.4 g/L ethyl 3-aminobenzoate methanesulfonate salt (tricaine). After an incision through the abdomen a batch of oocytes were removed. Clusters of oocytes were separated by incubation for ˜1 h in a Ca-free O—R2 solution (in mM: 82.5 NaCl, 2 KCl, 5 HEPES, and 1 MgCl2; pH adjusted to 7.4 by NaOH) containing Liberase Blendzyme. The oocytes were then incubated at 8° C. in a modified Barth's solution (MBS; in mM: 88 NaCl, 1 KCl, 2.4 NaHCO3, 15 HEPES, 0.33 Ca(NO3)2, 0.41 CaCl2, and 0.82 MgSO4; pH adjusted to 7.6 by NaOH) supplemented with penicillin (25 U/ml), streptomycin (25 μg/ml), and sodium pyruvate (2.5 mM) 2-24 hours before injection. Fifty nl of cRNA (50 pg) were injected into each oocyte using a Nanoject injector (Drummond Scientific, Broomall, Pa.). Injected oocytes were kept at 8° C. in MBS until one day before electrophysiological recordings, when they were incubated at 16° C. All chemicals were supplied from Sigma-Aldrich (Stockholm, Sweden) if not stated otherwise.
All manual electrophysiological recordings were performed at room temperature (20-23° C.), using a GeneClamp 500B amplifier (for oocytes) or a Axopatch 200B amplifier (for manual patch clamp of CHO—K1 cells and DRG neurons) and a Digidata 1440A digitizer and pClamp 10 software (all from Molecular Devices, Inc., Sunnyvale, Calif., USA). Compounds were dissolved to 100 mM in 99.5% EtOH and stored at −20° C. Compounds were diluted in extracellular solution to the desired test concentration.
The oocyte was placed in a bath surrounded by 1K extracellular solution that contained (in mM): 88 NaCl, 1 KCl, 15 HEPES, 0.4 CaCl2, and 0.8 MgCl2, pH adjusted to 7.4 by NaOH (reaching a sodium concentration of ˜100 mM). Control solution was added to the bath with a gravity driven perfusion system. Compound solution was added to the bath manually with a syringe. Two glass microelectrodes were inserted into the oocyte using micromanipulators. […] All channels were closed when the potential was clamped to −80 mV and this voltage was set as the holding potential. Currents were evoked from the holding potential of −80 mV by 100-ms long, 5-mV steps ranging from −80 up to +50 mV (WT) and +70 mV (3R).
Conductance GK(V) was calculated as GK(V)=[…], (Eq. 1) where IK is the average current from the steady-state phase at the end of each 100-ms pulse, V is the membrane voltage, and Vrev is the reversal potential for K^+, (set to −80 mV for the oocytes, and calculated to be −89 mV for the CHO—K1 cells).
G(V)=A/(1+exp((V1/2−V)/s))^n (Eq. 2) where A is amplitude of the curve, V is the absolute membrane voltage, V1/2 is the midpoint, s is the slope and n is an exponent set to 4^17. The compound-induced G(V) shift was determined at the 10% level of the maximum conductance in control solution^17. The compound-induced G(V) shift in CHO—K1 was quantified by subtracting the control V1/2 from the compound V1/2 when n was set to 1.
Data for concentration and pH dependent G(V) shifts (ΔV) in oocytes were fit with a dose-response equation ΔV=ΔVmax/(1+c1/2/c), (Eq. 3) where Δvmax is the maximal shift, c1/2 is half maximal effective concentration/pKa value and c is the concentration.

3R Shaker K channel, sequence (P08510 whole entry M356R/A359R): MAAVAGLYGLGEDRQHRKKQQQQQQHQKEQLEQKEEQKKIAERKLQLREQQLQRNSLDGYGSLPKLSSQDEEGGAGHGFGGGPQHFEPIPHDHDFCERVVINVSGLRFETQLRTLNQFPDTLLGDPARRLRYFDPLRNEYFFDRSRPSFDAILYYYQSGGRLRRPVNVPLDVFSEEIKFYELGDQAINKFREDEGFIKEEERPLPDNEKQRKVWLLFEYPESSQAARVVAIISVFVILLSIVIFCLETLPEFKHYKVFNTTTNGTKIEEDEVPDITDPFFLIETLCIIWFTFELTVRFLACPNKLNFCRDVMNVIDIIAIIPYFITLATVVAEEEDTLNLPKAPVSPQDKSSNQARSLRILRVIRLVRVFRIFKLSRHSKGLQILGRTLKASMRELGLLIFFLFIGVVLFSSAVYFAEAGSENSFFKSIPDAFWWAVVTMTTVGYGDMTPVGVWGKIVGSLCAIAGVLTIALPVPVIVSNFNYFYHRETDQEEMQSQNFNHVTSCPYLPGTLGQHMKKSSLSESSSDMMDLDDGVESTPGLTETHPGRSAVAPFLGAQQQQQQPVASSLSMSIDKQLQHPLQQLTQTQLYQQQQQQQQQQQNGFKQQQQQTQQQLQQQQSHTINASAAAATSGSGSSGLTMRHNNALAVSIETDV

## CC(C)C1=CC2=CC[C@@H]3[C@](C)(CCC[C@@]3(C)C(=O)O)[C@H]2CC1 [AA, abietic acid]
  compound-induced G(V) shift (mean±SEM): −11.2±2 mV
  ΔG(V) of representative G(V) curves (single examples): −8.1 mV
  relative current amplitude: 2.2 times

## CC(C)c1ccc2c(c1)C(=NOCc1ccccc1)CC1C(C)(C(=O)O)CCCC21C (centres unmarked) [Compound K9]
  effect on G(V) shift / current compared with DHAA: no significantly different effects compared to DHAA
  G(V) shift: −9.5 mV

## CC(C)c1ccc2c(c1)C(=NOCCCc1ccccc1)CC1C(C)(C(=O)O)CCCC21C (centres unmarked) [Compound K10]
  effect on G(V) shift / current compared with DHAA: decreased potency compared to DHAA
  G(V) shift: −3.0 mV

## CC(C)c1ccc2c(c1Cl)CCC1[C@](C)(C(=O)O)CCC[C@]21C (stereo partly drawn) [Wu14, (1R,4aS)-8-chloro-7-isopropyl-1,4a-dimethyl-1,2,3,4,4a,9,10,10a-octahydrophenanthrene-1-carboxylic acid]
  G(V) shift: −17.5 mV

## CC(C)c1ccc2c(c1Cl)C(=O)CC1[C@](C)(C(=O)O)CCC[C@]21C (some centres unmarked) [Wu15]
  G(V) shift: −4.9 mV

## CO/N=C1\CC2[C@](C)(C(=O)O)CCC[C@]2(C)c2ccc(C(C)C)c(Cl)c21 (stereo partly drawn) [Wu16, (1R,4aS,E)-8-chloro-7-isopropyl-9-methoxyimino-1,4a-dimethyl-1,2,3,4,4a,9,10,10a-octahydrophenanthrene-1-carboxylic acid]
  G(V) shift: −17.2 mV

## CC(C)c1ccc2c(c1Cl)C(=NO)CC1C(C)(C(=O)O)CCCC21C (centres unmarked) [Wu17]
  G(V) shift: −5.3 mV

## CC(C)c1ccc2c(c1Cl)C(=NOCc1ccccc1)CC1C(C)(C(=O)O)CCCC21C (centres unmarked) [Wu18]
  G(V) shift: −1.3 mV

## C=CCO/N=C1\CC2[C@](C)(C(=O)O)CCC[C@]2(C)c2ccc(C(C)C)c(Cl)c21 (stereo partly drawn) [Wu19, (1R,4aS,E)-9-((allyloxy)imino)-8-chloro-7-isopropyl-1,4a-dimethyl-1,2,3,4,4a,9,10,10a-octahydrophenanthrene-1-carboxylic acid]
  G(V) shift: −16.1 mV

## CC(C)c1cc2c(cc1Cl)[C@@]1(C)CCC[C@@](C)(C(=O)O)C1CC2=O (stereo partly drawn) [Wu20, (1R,4aS,E)-6-chloro-7-isopropyl-9-oxo-1,4a-dimethyl-1,2,3,4,4a,9,10,10a-octahydrophenanthrene-1-carboxylic acid]
  G(V) shift: −13.9 mV

## CC(C)c1cc2c(cc1Cl)[C@@]1(C)CCC[C@@](C)(C(=O)O)C1C/C2=N\O (stereo partly drawn) [Wu21, (1R,4aS,E)-6-chloro-7-isopropyl-9-hydroxyimino-1,4a-dimethyl-1,2,3,4,4a,9,10,10a-octahydrophenanthrene-1-carboxylic acid]
  G(V) shift: −13.8 mV

## CC(C)c1cc2c(cc1Cl)C1(C)CCCC(C)(C(=O)O)C1CC2=NOCc1ccccc1 (centres unmarked) [Wu22]
  G(V) shift: −9.1 mV

## CC(C)c1cc2c(cc1Br)[C@@]1(C)CCC[C@@](C)(C(=O)O)C1CC2 (stereo partly drawn) [Wu24, (1R,4aS,E)-6-bromo-7-isopropyl-1,4a-dimethyl-1,2,3,4,4a,9,10,10a-octahydrophenanthrene-1-carboxylic acid]
  increase in G(V) shift relative to DHAA (ΔVc7, ΔVhalo, ΔVtot): −0.3 mV
  compound-induced G(V) shift (mean±SEM): −12.4 mV
  G(V) shift: −12.5 mV

## CC(C)c1c(Cl)cc2c(c1Cl)CC[C@H]1[C@](C)(C(=O)O)CCC[C@]21C [Wu27]
  compound-induced G(V) shift (mean±SEM): −5.9±0.4 mV
  ΔG(V) of representative G(V) curves (single examples): −6.1 mV
  G(V) shift: −5.9 mV

## CC(C)c1cc2c(cc1Br)[C@@]1(C)CCC[C@@](C)(C(=O)O)C1C/C2=N\O (stereo partly drawn) [Wu28, (1R,4aS,E)-6-bromo-9-(hydroxyimino)-7-isopropyl-1,4a-dimethyl-1,2,3,4,4a,9,10,10a-octahydrophenanthrene-1-carboxylic acid]
  G(V) shift: −12.4 mV

## CC(C)c1cc2c(cc1Br)C1(C)CCCC(C)(C(=O)O)C1CC2=O (centres unmarked) [Wu30]
  G(V) shift: −7.0 mV

## CC(C)c1ccc2c(c1)C(=NO)CC1C(C)(C(=O)O)CCCC21C (centres unmarked) [Wu31]
  effect on G(V) shift / current compared with DHAA: clearly reduced the current increase
  G(V) shift: −3.0 mV

## C=CCO/N=C1\CC2[C@](C)(C(=O)O)CCC[C@]2(C)c2cc(Br)c(C(C)C)cc21 (stereo partly drawn) [Wu33, (1R,4aS,E)-6-bromo-9-((allyloxy)imino)-7-isopropyl-1,4a-dimethyl-1,2,3,4,4a,9,10,10a-octahydrophenanthrene-1-carboxylic acid]
  G(V) shift: −24.5 mV

## CC(C)c1cc2c(cc1Br)C1(C)CCCC(C)(C(=O)O)C1CC2=NOCc1ccccc1 (centres unmarked) [Wu34]
  G(V) shift: −6.6 mV

## CON=C1C[C@H]2[C@](C)(C(=O)O)CCC[C@]2(C)c2ccc(C(C)C)cc21 [Wu36]
  increase in G(V) shift relative to DHAA (ΔVc7, ΔVhalo, ΔVtot): −2.7 mV
  compound-induced G(V) shift (mean±SEM): −14.8 mV
  effect on G(V) shift / current compared with DHAA: no significantly different effects compared to DHAA
  G(V) shift: −14.8 mV
  relative current amplitude: 4.4 times

## CC(C)c1c(Cl)cc2c(c1Cl)C(=O)CC1C(C)(C(=O)O)CCCC21C (centres unmarked) [Wu37]
  G(V) shift: −11.1 mV

## COC1CC2[C@](C)(C(=O)O)CCC[C@]2(C)c2ccc(C(C)C)cc21 (some centres unmarked) [Wu39]
  effect on G(V) shift / current compared with DHAA: clearly reduced the current increase
  G(V) shift: −7.3 mV
  relative current amplitude: 2.6 times

## C=CCON=C1CC2C(C)(C(=O)O)CCCC2(C)c2cc(Cl)c(C(C)C)c(Cl)c21 (centres unmarked) [Wu40]
  G(V) shift: −13.4 mV

## CON=C1C[C@H]2[C@](C)(C(=O)O)CCC[C@]2(C)c2cc(Cl)c(C(C)C)c(Cl)c21 [Wu41, (1R,4aS,10aR)-6,8-dichloro-7-isopropyl-9-(methoxyimino)-1,4a-dimethyl-1,2,3,4,4a,9,10,10a-octahydrophenanthrene-1-carboxylic acid]
  G(V) shift: −22.1 mV

## CC(C)c1c(Cl)cc2c(c1Cl)C(=NO)CC1C(C)(C(=O)O)CCCC21C (centres unmarked) [Wu42]
  G(V) shift: −6.1 mV

## CC(C)c1c(Cl)cc2c(c1Cl)C(=NOCc1ccccc1)CC1C(C)(C(=O)O)CCCC21C (centres unmarked) [Wu43]
  G(V) shift: −4.2 mV

## CC(C)c1c(Cl)c(Cl)c2c(c1Cl)CCC1C(C)(C(=O)O)CCCC21C (centres unmarked) [Wu45]
  G(V) shift: −3.9 mV

## CC(C)c1c(Cl)c(Cl)c2c(c1Cl)C(=O)CC1[C@](C)(C(=O)O)CCC[C@]21C (some centres unmarked) [Wu46]
  G(V) shift: −2.5 mV

## CON=C1CC2C(C)(C(=O)O)CCCC2(C)c2c(Cl)c(Cl)c(C(C)C)c(Cl)c21 (centres unmarked) [Wu47]
  G(V) shift: −13.4 mV

## CC(C)c1c(Cl)c(Cl)c2c(c1Cl)C(=NO)CC1C(C)(C(=O)O)CCCC21C (centres unmarked) [Wu48]
  G(V) shift: 4.7 mV

## C=CCON=C1CC2C(C)(C(=O)O)CCCC2(C)c2c(Cl)c(Cl)c(C(C)C)c(Cl)c21 (centres unmarked) [Wu49]
  G(V) shift: −7.3 mV

## CC(C)c1c(Cl)c(Cl)c2c(c1Cl)C(=NOCc1ccccc1)CC1C(C)(C(=O)O)CCCC21C (centres unmarked) [Wu51]
  G(V) shift: −1.9 mV

From US20180193294A1, “Dehydroabietic acid (DHAA) derivatives for use as ion channel openers” (priority 2015, published 2018)
